In data set [1] the test system is XPA-1-RFP pancreatic tumor xenografts. As to the kind of experiment: Orthotopic XPA-1-RFP pancreatic tumor xenograft in Nestin-GFP mice. The class given is in vivo. The protocol:
FIG. 16 and FIG. 17 illustrate data showing that KG5 inhibits pancreatic tumor growth and reduces tumor vascular density, as described in Murphy (2010) Proc. Natl. Acad. Sci. USA, Mar. 2, 2010; vol. 107(9): 4299-4304. FIGS. 16A and 16B, and FIGS. 17A and 17B: Real-time fluorescent imaging of XPA-1-RFP pancreatic tumor xenografts in the pancreas of Nestin-GFP mice (n=5/group) treated with either vehicle (FIG. 16A, 17A) or KG5 (FIG. 16B, 17B) (50 mg/kg, i.p., bid). Drug treatments were started 3 days after surgical orthotopic implantation (SOT) of XPA-1-RFP tumors, and tumor progression was monitored every 3 days by whole-animal imaging (Scale bar, 10 mm). FIG. 17(C) graphically illustrates a plot of tumor surface area over time for the vehicle- and KG5-treated groups, Tumor surface area was calculated by adding the total pixels of both the ventral and lateral images of the tumor. *P=0.034. FIG. 17(D) graphically illustrates average body weight of the mice measured each day of whole-animal imaging described in A and B. FIG. 16(C) graphically illustrates total weights of resected primary tumors on day 15 post-SOT. *P=0.022.
Animals were systemically treated with either vehicle or KG5 (50 mg/kg, bid) beginning 3 days after surgical orthotopic implantation (SOI) of a tumor fragment. Tumor growth was monitored noninvasively by whole-body imaging. […] Animals treated with KG5 produced an average tumor weight of 26.7 mg compared to 74.1 mg for vehicle-treated animals (FIG. 16C). At this time, GFP-labeled blood vessels were imaged and tumor-associated blood vessel density was quantified by measuring the ratio of total blood vessel length to tumor volume. […] The mean vessel length/tumor volume was 2.5 mm/mm^3 compared to 0.2 mm/mm^3 for vehicle and KG5, respectively.
FIG. 18 further illustrates data from the studies of FIG. 16 and FIG. 17: FIG. 18(A) and FIG. 18(B) illustrate representative fluorescent images of endothelial GFP expression (GFP expression driven by the Nestin promoter) within the XPA-1-RFP tumors after resection. Images were taken 15 days post-SOI (Scale bar, 200 μm); FIG. 18(C) illustrates a plot of tumor vessel density from images acquired as in E, Blood vessels imaged as in E were converted to length (mm) and normalized to tumor volume (mm^3). *P=0.01.

The target of data set [2] is RAF dimerization (BRAF and CRAF) (Homo sapiens, UniProt P04049). As to the kind of experiment: RAF dimerization, immunoblot of BRAF and CRAF immunoprecipitates from A549 cells. It counts as cell-based. The protocol: FIG. 11 illustrates immunoblot analysis of BRAF and CRAF immunoprecipitates from A549 cells treated with PD0325901, Sorafenib, L-779450, PLX4720, KG5 or KG1.
Immunoprecipitation and Immunoblot Analysis Cells were lysed in either NP40 lysis buffer (150 mM NaCl, 50 mM Tris Base pH 7.4, 1% NP40) or RIPA buffer (50 mM Tris pH 7.4, 100 mM NaCl, 0.1% SDS) supplemented with complete protease inhibitor mixture (Roche), 50 mM NaF and 1 mM Na3VO4 and centrifuged at 13,000×g for 10 min at 4° C. Protein concentration was determined by BCA assay. […] of protein were immunoprecipitated with […] of anti-Flag (Sigma), anti-CRAF (BD Pharmingen), anti-Plk1 (Abcam), anti-γ-Tubulin (sigma) or anti-cenpF (Santa Cruz) antibodies overnight at 4° C. followed by capture with 25 μl of protein A/G (Pierce). Beads were washed five times, eluted in boiling Laemmli buffer, resolved on 10% SDS-PAGE and immunoblotting was performed with anti-Plk1 antibody (Abcam), anti-CRAF antibody (BD Pharmingen), anti-Aurora A (Abcam), anti-phospho-S338 CRAF (Cell Signaling), anti-phospho-T210 Plk1 or anti-phospho-T288 Aurora A (Cell signaling) diluted 1:1000. For immunoblot analysis, […] of protein was boiled in […]
Background: In western blotting, separated proteins are transferred to a membrane and probed.

The next data set concerns p-MEK and p-ERK. The note with it: cited from earlier work.
The target in a further data set is c-Kit (Homo sapiens, UniProt P10721). The note with it: cited from earlier work.
In a further data set the test system is Plk1. As to the kind of experiment: Plk1 activity in tumor cells arrested in pro-metaphase. The class given is cell-based, human. To be noted: compared to cells arrested with nocodazole or paclitaxel. An excerpt:
FIG. 46. CRAF regulates Plk1 activity and localization. FIG. 46(a) Plk1 kinase activity assay performed in WT and CRAF−/− MEFs. Error bars represent s.d. (n=3); * two tailed p value=0.029 using Mann Whitney U test. FIG. 46(b) Immunoblot analysis of XPA-1 cells asynchronous or arrested in mitosis by treatment with KG5, nocodazole or paclitaxel (referred to as Ncdzl and Ptxl respectively). pPlk1 refers to phospho-T210 Plk1 and pHH3 refers to phospho-Histone H3. Data are representative of three independent experiments. FIG. 46(c) Plk1 kinase activity assay performed in HCT-116 cells treated with nocodazole or nocodazole and KG5. Error bars represent s.d. ([…]); * two tailed p value=0.002 using Mann Whitney U test. FIG. 46(d) Immunoblot analysis of CenpF immunoprecipitates from HCT-116 cells untreated or treated with KG5. Data are representative of three independent experiments. FIG. 46(e) Confocal microscopy images of XPA-1 cell at prophase (upper panel), pro-metaphase control untreated (middle panel) or treated with KG5 (lower panel). Cells were stained for phospho-T210 Plk1 (in green), a tubulin (in red) and DNA (TOPRO-3™ in blue). […]
Plk1 enzymatic activity in cell lysates from WT, CRAF−/− MEFs, HCT-116 cells expressing WT or S338D CRAF and HCT-116 cells treated with the allosteric RAF inhibitor KG5 was determined using the Plk1 kinase kit from MBL and following the manufacturer's protocol.

Sequence of c-Kit (P10721 26-976): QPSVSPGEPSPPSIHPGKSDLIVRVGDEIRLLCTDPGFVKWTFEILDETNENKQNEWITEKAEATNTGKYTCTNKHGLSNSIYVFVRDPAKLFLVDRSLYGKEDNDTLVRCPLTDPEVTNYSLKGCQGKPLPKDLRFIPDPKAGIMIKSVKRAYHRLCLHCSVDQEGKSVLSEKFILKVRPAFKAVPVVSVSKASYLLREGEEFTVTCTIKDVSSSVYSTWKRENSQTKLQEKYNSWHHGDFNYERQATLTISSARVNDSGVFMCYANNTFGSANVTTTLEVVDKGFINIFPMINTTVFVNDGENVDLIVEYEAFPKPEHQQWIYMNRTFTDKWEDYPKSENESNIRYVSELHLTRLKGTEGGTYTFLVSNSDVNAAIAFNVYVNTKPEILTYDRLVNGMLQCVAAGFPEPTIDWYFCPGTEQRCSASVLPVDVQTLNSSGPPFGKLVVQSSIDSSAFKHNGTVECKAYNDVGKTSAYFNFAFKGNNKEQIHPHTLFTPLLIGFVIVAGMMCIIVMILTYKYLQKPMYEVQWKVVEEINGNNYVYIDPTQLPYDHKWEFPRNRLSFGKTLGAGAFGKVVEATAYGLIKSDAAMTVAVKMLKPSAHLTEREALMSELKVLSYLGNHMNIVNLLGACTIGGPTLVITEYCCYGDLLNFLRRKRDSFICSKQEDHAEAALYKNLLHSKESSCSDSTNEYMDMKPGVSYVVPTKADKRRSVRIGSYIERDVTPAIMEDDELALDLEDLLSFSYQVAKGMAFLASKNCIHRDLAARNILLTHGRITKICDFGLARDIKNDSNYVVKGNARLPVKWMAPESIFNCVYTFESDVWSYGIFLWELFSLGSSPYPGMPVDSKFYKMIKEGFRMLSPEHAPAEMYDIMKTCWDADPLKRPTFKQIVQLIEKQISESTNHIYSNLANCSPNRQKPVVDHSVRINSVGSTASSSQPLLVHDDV
Sequence of RAF dimerization (BRAF and CRAF) (P04049 whole entry): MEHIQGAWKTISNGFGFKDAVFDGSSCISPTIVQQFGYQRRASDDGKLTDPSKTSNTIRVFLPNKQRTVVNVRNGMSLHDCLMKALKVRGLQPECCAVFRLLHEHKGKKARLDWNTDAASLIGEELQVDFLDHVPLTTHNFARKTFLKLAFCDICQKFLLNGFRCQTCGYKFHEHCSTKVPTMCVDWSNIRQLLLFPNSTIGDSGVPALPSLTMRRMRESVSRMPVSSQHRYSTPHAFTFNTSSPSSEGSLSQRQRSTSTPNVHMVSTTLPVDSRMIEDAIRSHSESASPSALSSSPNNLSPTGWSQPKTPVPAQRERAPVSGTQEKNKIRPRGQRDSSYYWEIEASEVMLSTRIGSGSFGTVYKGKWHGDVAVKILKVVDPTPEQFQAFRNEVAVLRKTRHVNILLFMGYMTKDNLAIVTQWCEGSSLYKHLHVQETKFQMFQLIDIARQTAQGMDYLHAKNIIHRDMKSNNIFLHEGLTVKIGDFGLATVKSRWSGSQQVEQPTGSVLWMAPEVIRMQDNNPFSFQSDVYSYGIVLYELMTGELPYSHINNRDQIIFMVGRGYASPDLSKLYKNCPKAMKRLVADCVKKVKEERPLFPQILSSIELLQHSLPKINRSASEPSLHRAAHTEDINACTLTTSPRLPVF

As for `CSc1nc(N)cc(Oc2ccc(-c3nnc(Nc4cccc(C(F)(F)F)c4)[nH]3)cc2)n1` [KG5], in data set [1] (50 mg/kg bid), the body weight result is recorded as “no weight loss” and the signs of lethargy entry is “did not demonstrate any signs of lethargy”. Further, in data set [1] (50 mg/kg bid, 12 days post-SOI, compared to vehicle), the “tumor growth by whole-body imaging” value is reported as “completely suppressed”. The compound also gave an average tumor weight in data set [1] (50 mg/kg i.p. bid from 3 days after SOI, resected primary tumors day 15 post-SOI, vehicle 74.1 mg) of 26.7 mg. Further, in data set [1] (50 mg/kg i.p. bid, 15 days post-SOI, vehicle 2.5 mm/mm^3), the “mean vessel length/tumor volume” value was 0.2 mm/mm^3. Besides, the RAF dimerization entry in data set [2] is listed as “prevents RAF dimerization”. Moreover, the “p-MEK and p-ERK” value in the data set on p-MEK and p-ERK (bFGF- or VEGF-stimulated endothelial cells) is recorded as “blocked”. Also, in the data set on p-MEK and p-ERK (endothelial cells), the “bFGF- or VEGF-mediated phosphorylation of MEK on S217/S221” value is on record as “inhibited” and the “bFGF- or VEGF-mediated phosphorylation of MEK on S298” value is on record as “not on S298”. On c-Kit, the “inhibition of c-Kit” value is given as “inhibits”. Further, the Plk1 activity result with Plk1 was “decreased Plk1 activity”.

The record behind these values is patent US20130266636A1, “METHODS FOR BLOCKING CELL PROLIFERATION AND TREATING DISEASES AND CONDITIONS RESPONSIVE TO CELL GROWTH INHIBITION” (THE REGENTS OF THE UNIVERSITY OF CALIFORNIA, priority 2010, published 2013).
